Several values for one entry are separate records, joined by “and”; a condition that tells them apart may be missing. Equal values may be shown once. Read-outs that look alike come from different tables or passages of the source.
How the values were obtained:
[1] = Phase I metabolic stability in rat liver microsomes (with NADPH); assay type: in vitro ADME; conditions: pH 7.4, presence of NADPH, mean ± SD, n = 3
Method: (§1) We evaluated the Phase I metabolic stability of compounds 2−7 and 14−19 using rat and human liver microsomes, as previously described.[45]
(§2) Phase I metabolic stability assays were conducted using rat and human liver microsomes as previously described[45],[70] with minor modifications. In brief, the reactions were carried out with 100 mM potassium phosphate buffer, pH 7.4, in the presence of NADPH regenerating system (1.3 mM NADPH, 3.3 mM glucose 6-phosphate, 3.3 mM MgCl2, 0.4 U/mL glucose-6-phosphate dehydrogenase, 50 μM sodium citrate). Negative controls without cofactors were assessed to determine the non-CYP-mediated metabolism. Compound disappearance was monitored over time using a liquid chromatography and tandem mass spectrometry (LC/MS) method. All reactions were performed in triplicate.
(§3) Chromatographic analysis was performed on a Dionex ultra high-performance LC system coupled with Q Exactive Focus orbitrap mass spectrometer (Thermo Fisher Scientific Inc., Waltham MA). Separation was achieved using Agilent Eclipse Plus column (100 × 2.1 mm^2 i.d.; maintained at 35 °C) packed with a 1.8 μm C18 stationary phase. […] The total run time for each analyte was 6.5 min. Pumps were operated at a flow rate of 0.3 mL/min. The mass spectrometer controlled by Xcalibur software 4.0.27.13 (Thermo Scientific) was operated with a HESI ion source in positive ionization mode. Compounds were identified in the full-scan mode (from m/z 50 to 750) by comparing t = 0 samples with t = 30 min and t = 60 min samples.

[2] = Phase I metabolic stability in human liver microsomes (with NADPH); assay type: in vitro ADME; conditions: pH 7.4, presence of NADPH, mean ± SD, n = 3
Method: as §1, §2, §3

[3] = Pharmacokinetics study in rats (plasma and brain); assay type: in vivo, Sprague−Dawley rats; conditions: rat, 5 mg/kg IP; for Kp / half-life / Tmax / AUC / Cmax: Sprague-Dawley; for Kp: brain and plasma, AUC brain/plasma, read-out: brain: Plasma ratio; for Kp / half-life: ip; for peak in vivo brain concentrations expected: from brain Cmax
Method: Given their adequate in vitro stability profiles, we next evaluated the in vivo pharmacokinetic profiles of 14, 15, 17, and 18 in rats. Sprague−Dawley rats were dosed with 5 mg/kg (14, 15, 17) or 10 mg/kg (18), i.p., and plasma and brain levels of each drug were measured 0−6 h postdose.
All animal experiments were performed following the protocols evaluated and approved by the Animal Care and Use Committee at Johns Hopkins University (Ethics Approval Number: RA24M403). Pharmacokinetic studies in Sprague−Dawley (SD) rats were conducted according to protocols approved. SD rats obtained from Harlan were maintained on a 12 h light−dark cycle with ad libitum access to food and water. Test compound was administered via i.p. injection at a dose of 10 mg/kg (100% saline vehicle, 10 mL/kg volume). The rats were sacrificed at specified time points (0.25, 0.5 h, 1, 2, 4, and 6 h) post drug administration. For the collection of plasma and brain tissue, animals were euthanized with CO2, and blood samples were collected in heparinized microtubes by cardiac puncture. Brains were dissected and immediately flash-frozen (−80 °C). Blood samples were spun at 2000g for 15 min, and plasma was removed and stored at −80 °C until analysis (as described below).
Quantitation of triazole analogs 14, 15, 17, and 18 was performed using liquid chromatography with tandem mass spectrometry (LC/MS-MS) methods. Briefly, calibration standards were prepared using respective tissue (naïve plasma and brain) with additions of the test compounds. For quantifying the test compounds in the pharmacokinetic samples, plasma samples (20 μL) were processed using a single liquid extraction method by addition of 100 μL of acetonitrile containing internal standard (losartan: 0.5 μM), followed by vortex-mixing for 30 s and then centrifugation at 10,000g for 10 min at 4 °C. Brain tissues were diluted 1:5 w/v with acetonitrile containing losartan (0.5 μm) and homogenized, followed by vortex-mixing and centrifugation at 10,000g for 10 min at 4 °C. A 50 μL aliquot of the supernatant was diluted with 50 μL of water and transferred to 250 μL polypropylene autosampler vials sealed with Teflon caps. Two μL of the sample was injected into the LC/MS/MS system for analysis. Chromatographic analysis was performed using an Accela ultra high-performance system consisting of an analytical pump and an autosampler coupled with a TSQ Vantage mass spectrometer. […] The mobile phase consisted of 0.1% formic acid in acetonitrile and 0.1% formic acid in water with gradient elution, starting with 10% organic phase (from 0 to 1 min) linearly increasing to 95% (from 1 to 2 min), and re-equilibrating to 10% by 3 min. The total run time for each analyte was 3.5 min. Pumps were operated at a flow rate of 0.4 mL/min. […] Plasma concentrations (nmol/mL) as well as brain tissue concentrations (nmol/g) were determined and plots of mean plasma concentration versus time were constructed. Noncompartmental analysis modules in Phoenix WinNonlin version 7.0 (Certara USA, Inc., Princeton, NJ) were used to quantify exposures (AUC0−t) and half-life (t1/2).

D1 = target: T1, D1 (Homo sapiens, UniProt P21728); experiment: PDSP primary screen and secondary assay, D1; assay type: binding; conditions: 10 µM compound
T1 construct: Psychoactive Drug Screening Program (PDSP)
T1 sequence (P21728 whole entry): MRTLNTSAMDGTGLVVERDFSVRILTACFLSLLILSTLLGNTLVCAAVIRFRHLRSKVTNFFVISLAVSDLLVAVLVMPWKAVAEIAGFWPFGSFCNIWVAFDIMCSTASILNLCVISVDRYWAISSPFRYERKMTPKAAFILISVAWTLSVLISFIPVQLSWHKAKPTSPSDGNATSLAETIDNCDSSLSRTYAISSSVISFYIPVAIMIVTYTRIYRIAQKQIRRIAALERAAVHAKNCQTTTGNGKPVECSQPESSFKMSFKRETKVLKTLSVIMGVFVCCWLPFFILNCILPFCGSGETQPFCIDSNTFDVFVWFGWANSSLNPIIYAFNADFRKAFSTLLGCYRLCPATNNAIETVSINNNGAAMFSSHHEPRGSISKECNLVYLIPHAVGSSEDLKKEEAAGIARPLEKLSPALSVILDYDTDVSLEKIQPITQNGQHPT
Excerpt: (§4) Receptor Primary Secondary Primary Secondary Primary Secondary Primary Secondary screen assay screen assay screen assay screen assay […]
(§5) inhibition in primary assessment.

D5 = target: T2, D5 (Homo sapiens, UniProt P21918); experiment: PDSP primary screen, D5; assay type: binding; conditions: 10 µM compound
T2 construct: Psychoactive Drug Screening Program (PDSP)
T2 sequence (P21918 whole entry): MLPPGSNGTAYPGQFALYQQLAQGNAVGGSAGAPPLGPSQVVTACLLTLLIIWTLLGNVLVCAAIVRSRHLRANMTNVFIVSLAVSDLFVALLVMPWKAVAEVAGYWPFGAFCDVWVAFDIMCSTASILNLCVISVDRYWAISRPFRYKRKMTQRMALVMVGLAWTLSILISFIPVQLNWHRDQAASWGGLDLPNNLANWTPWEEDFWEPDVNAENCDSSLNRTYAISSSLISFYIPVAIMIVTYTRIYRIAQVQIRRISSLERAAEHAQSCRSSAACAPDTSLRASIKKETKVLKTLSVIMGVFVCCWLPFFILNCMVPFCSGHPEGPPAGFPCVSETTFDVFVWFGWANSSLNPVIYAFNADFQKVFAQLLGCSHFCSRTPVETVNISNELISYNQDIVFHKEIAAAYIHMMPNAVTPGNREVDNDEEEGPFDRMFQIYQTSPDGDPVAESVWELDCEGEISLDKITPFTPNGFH
Excerpt: as §4, §5

human D2R long isoform [4] = target: T3, human D2R long isoform (Homo sapiens, UniProt P14416); experiment: DiscoverX PathHunter β-arrestin recruitment assay, D2R; conditions: for Emax: read-out: D2R Emax (%)
T3 sequence (P14416 whole entry, canonical isoform): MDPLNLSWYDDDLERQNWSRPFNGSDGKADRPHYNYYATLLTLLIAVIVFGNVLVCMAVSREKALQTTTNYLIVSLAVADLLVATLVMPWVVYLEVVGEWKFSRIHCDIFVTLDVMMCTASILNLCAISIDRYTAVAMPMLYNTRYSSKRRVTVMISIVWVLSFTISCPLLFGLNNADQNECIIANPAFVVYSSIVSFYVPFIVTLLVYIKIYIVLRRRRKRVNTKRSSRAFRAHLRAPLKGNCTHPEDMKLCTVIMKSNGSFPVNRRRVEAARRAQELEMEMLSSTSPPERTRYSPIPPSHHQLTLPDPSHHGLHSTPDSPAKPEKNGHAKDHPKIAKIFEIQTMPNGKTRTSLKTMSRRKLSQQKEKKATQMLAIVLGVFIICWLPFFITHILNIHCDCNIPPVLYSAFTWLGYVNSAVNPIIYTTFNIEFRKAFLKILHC

human D3R [5] = target: T4, human D3R (Homo sapiens, UniProt P35462); experiment: DiscoverX PathHunter β-arrestin recruitment assay, D3R; conditions: for Emax: read-out: D3R Emax (%); for D3R Ant. (%): antagonist mode, EC80 dopamine (1 μM), normalized to spiperone
T4 sequence (P35462 whole entry): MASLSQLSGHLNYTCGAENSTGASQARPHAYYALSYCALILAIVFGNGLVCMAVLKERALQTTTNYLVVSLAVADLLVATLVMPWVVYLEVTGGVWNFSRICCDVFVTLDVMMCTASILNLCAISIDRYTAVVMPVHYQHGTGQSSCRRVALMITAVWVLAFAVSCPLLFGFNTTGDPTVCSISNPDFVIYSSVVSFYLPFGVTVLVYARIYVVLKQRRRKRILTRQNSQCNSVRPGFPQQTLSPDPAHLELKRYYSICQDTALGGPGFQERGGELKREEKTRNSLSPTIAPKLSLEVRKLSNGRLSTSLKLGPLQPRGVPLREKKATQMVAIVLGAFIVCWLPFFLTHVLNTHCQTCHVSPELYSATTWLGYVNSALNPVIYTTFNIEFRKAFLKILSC

human D4R [6] = target: T5, human D4R (Homo sapiens, UniProt P21917); experiment: DiscoverX PathHunter β-arrestin recruitment assay, D4R; conditions: for D4R average activity at the highest tested dose: at 100 μM (Emax ND); for D4R Ant. (%): antagonist mode, EC80 dopamine (1 μM), normalized to spiperone
T5 sequence (P21917 1-419): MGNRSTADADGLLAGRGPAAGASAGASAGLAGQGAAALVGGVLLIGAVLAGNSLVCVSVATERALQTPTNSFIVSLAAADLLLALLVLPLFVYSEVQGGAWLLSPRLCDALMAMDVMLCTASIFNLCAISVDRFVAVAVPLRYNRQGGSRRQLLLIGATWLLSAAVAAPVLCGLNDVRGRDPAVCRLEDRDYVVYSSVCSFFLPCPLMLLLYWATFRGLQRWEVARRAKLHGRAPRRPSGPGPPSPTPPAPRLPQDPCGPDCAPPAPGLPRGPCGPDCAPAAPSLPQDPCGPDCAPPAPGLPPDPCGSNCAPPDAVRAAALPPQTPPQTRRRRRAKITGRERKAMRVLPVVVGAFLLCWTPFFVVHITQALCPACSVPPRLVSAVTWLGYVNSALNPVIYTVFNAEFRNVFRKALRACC

human D4R [7] = target: T5, human D4R; conditions: for D4R Ant. (%): cAMP, antagonist mode, 10 μM forskolin and 10 nM dopamine, normalized to spiperone; for Emax: read-out: D4R Emax (%)
human D2R long isoform [8] = target: T3, human D2R long isoform; set-up: host or cells: CHO-K1; method as in PMID 30883109; conditions: antagonist mode; previously reported; cited from earlier work
human D4R [9] = target: T5, human D4R; set-up: host or cells: CHO-K1; method as in PMID 30883109; conditions: previously reported, cited from earlier work; for D4R Emax (%): agonist mode; for D4R Ant. (%): antagonist mode
human D3R [10] = target: T4, human D3R; set-up: host or cells: CHO-K1; method as in PMID 30883109; conditions: previously reported, cited from earlier work
[11] = brain, 5 mg/kg, brain, read-out: half-life (h) brain (converted)
[12] = plasma and brain, 5 mg/kg, tissue not specified, read-out: half-life (converted)
[13] = plasma, 5 mg/kg, plasma, read-out: half-life (h) plasma (converted)
[14] = brain, read-out: Tmax (h) brain
[15] = plasma, read-out: Tmax (h) plasma
[16] = antagonist mode, EC80 dopamine (1 μM), normalized to spiperone

## Cc1cccc(-n2cc(CN3CCN(c4ccccn4)CC3)nn2)c1 [Compound 15, 1-(Pyridin-2-yl)-4-((1-(m-tolyl)-1H-1,2,3-triazol-4-yl)-methyl)-piperazine]
[1]
  half-life: 32.9 ± 1.16 min
[2]
  half-life: 61.4 ± 7.27 min
[3]; 5 mg/kg
  Kp: 0.72
[3]; [11]
  half-life: 1.02 h
[3]; [12]
  half-life: > 1.1 h
[3]; [13]
  half-life: 1.09 h
[3]; [14]
  Tmax: 0.25 h
[3]; plasma
  AUC: 2.65 ± 0.46 µM·h
  Cmax: 3.28 ± 1.26 µM
[3]; [15]
  Tmax: 0.25 h
[3]; brain
  AUC brain: 1.91 ± 0.31 nmol·h/g
  Cmax brain: 1.83 ± 0.68 nmol/g
[3]
  peak in vivo brain concentrations expected: greater than 1.8 μM
D1
  inhibition at 10 µM: 2.16%
D5
  inhibition at 10 µM: 1.76%
Human D2R long isoform [4]
  EC50: > 100000 nM
  IC50: 9050 ± 2500 nM
  Emax: 16.5 ± 9.8%
Human D2R long isoform [4]; [16]
  D2R Ant (%): 87.7 ± 2.6%
Human D3R [5]
  EC50: 3600 ± 480 nM
  Emax: 110 ± 29%
Human D4R [6]
  EC50: > 100000 nM
  IC50: 310 ± 49 nM
  D4R Ant. (%): 82.8 ± 3.3%
Human D4R [6]; agonist mode
  D4R average activity at the highest tested dose: ND (14% at 100 μM)
Human D4R [7]
  EC50: 5.29 ± 1.39 nM
  IC50: 57.6 ± 5.44 nM
  D4R Ant. (%): 40 ± 1%
  Emax: 43 ± 6%

## O=C(CCCN1CCC2(CC1)C(=O)NCN2c1ccccc1)c1ccc(F)cc1 [Spiperone, reference compound]
Human D2R long isoform [4]
  D2R Ant (%): 100 ± 0%
Human D4R [6]
  D4R Ant. (%): 100 ± 0%
Human D4R [7]
  D4R Ant. (%): 100 ± 0%

## Cc1cccc(NC(=O)CN2CCC(c3ccccc3)CC2)c1 [Compound 5]
[1]
  half-life: 1.99 ± 2.82 min
[2]
  half-life: 10.8 ± 0.57 min
Human D2R long isoform [8]
  D2R Ant (%): 99.7 ± 0.3%
Human D4R [9]
  D4R Emax (%): 14 ± 0.3%
  D4R Ant. (%): 93% and 93.3 ± 1.8%
Human D4R [7]
  EC50: 7.54 ± 2.21 nM
  IC50: 42.4 ± 10.6 nM
  D4R Ant. (%): 47 ± 1%
  Emax: 42 ± 8%

## Cc1cccc(NC(=O)CN2CCC(c3ccccn3)CC2)c1 [Compound 1, reference compound]
Human D2R long isoform [8]
  D2R Ant (%): 94.8 ± 2.8%
Human D3R [10]; agonist mode
  EC50: > 100000 nM
Human D3R [10]; antagonist mode
  IC50: > 100000 nM
Human D4R [9]
  D4R Emax (%): 22.5 ± 4.0%
  D4R Ant. (%): 81.7 ± 2.7%

## CCc1cccc(-n2cc(CN3CCN(c4ccccn4)CC3)nn2)c1 [Compound 19, 1-((1-(3-Ethylphenyl)-1H-1,2,3-triazol-4-yl)methyl)-4-(pyridin-2-yl)piperazine]
[1]
  half-life: 28 ± 0.56 min
[2]
  half-life: 37.5 ± 0.68 min

## Cc1cccc(-n2cc(CN3CCN(c4ncccn4)CC3)nn2)c1 [Compound 16, 2-(4-((1-(m-Tolyl)-1H-1,2,3-triazol-4-yl)methyl)-piperazin-1-yl)pyrimidine]
[1]
  half-life: 68.1 ± 9.51 min
[2]
  half-life: 40.1 ± 1.91 min
Human D2R long isoform [4]
  EC50: 6870 ± 2500 nM
  IC50: 19000 nM
  Emax: 25.3 ± 4.9%
Human D2R long isoform [4]; [16]
  D2R Ant (%): 73.2 ± 4.6%
Human D3R [5]
  EC50: > 100000 nM
  IC50: > 10000 nM
  D3R Ant. (%): 105 ± 4%
  Emax: 75 ± 14%
Human D4R [6]
  EC50: > 100000 nM
  IC50: 140 ± 35 nM
  D4R Ant. (%): 85.2 ± 2.4%
Human D4R [6]; agonist mode
  D4R average activity at the highest tested dose: ND (14% at 100 μM)
Human D4R [6]; agonist mode, in comparison to dopamine
  D4R Emax (%): did not show partial agonist activity
Human D4R [7]
  EC50: 7.68 ± 1.88 nM
  IC50: 67.9 ± 11.3 nM
  D4R Ant. (%): 45 ± 3%
  Emax: 39 ± 7%

## Cc1cccc(-n2cc(CN3CCC(c4ccccc4)CC3)nn2)c1 [Compound 14, 4-Phenyl-1-((1-(m-tolyl)-1H-1,2,3-triazol-4-yl)methyl)-piperidine]
[1]
  half-life: 13.4 ± 0.44 min
[2]
  half-life: 63.3 ± 2.98 min
[3]; 5 mg/kg
  Kp: 0.76
[3]; [11]
  half-life: 0.4 h
[3]; [12]
  half-life: ≤ 0.4 h
[3]; [13]
  half-life: 0.37 h
[3]; [14]
  Tmax: 0.25 h
[3]; plasma
  AUC: 1.56 ± 0.2 µM·h
  Cmax: 2.89 ± 0.57 µM
[3]; [15]
  Tmax: 0.25 h
[3]; brain
  AUC brain: 1.19 ± 0.10 nmol·h/g
[3]; brain, 5 mg/kg
  Cmax brain: 2.16 ± 0.21 nmol/g
[3]
  peak in vivo brain concentrations expected: greater than 2.8 μM
D1
  inhibition at 10 µM: 20.2%
D5
  inhibition at 10 µM: 16%
Human D2R long isoform [4]
  IC50: 6090 ± 1340 nM
Human D2R long isoform [4]; [16]
  D2R Ant (%): 112 ± 3%
Human D3R [5]
  IC50: 6300 ± 2100 nM
  D3R Ant. (%): 81.6 ±0.3%
Human D4R [6]
  EC50: > 100000 nM
  D4R Ant. (%): 93.3 ± 5.9%
Human D4R [6]; agonist mode
  D4R average activity at the highest tested dose: ND (12% at 100 μM)
Human D4R [7]
  EC50: 44.5 ± 17.4 nM
  IC50: 84.6 ± 15.6 nM
  D4R Ant. (%): 63 ± 2%
  Emax: 30 ± 5%

— article PMC12910498 (ACS pharmacology & translational science, 2026)
